This is an account of results in ChEMBL document CHEMBL4257557, “Design, synthesis, and evaluation of 4,5,6,7-tetrahydrobenzo[d]thiazole-based novel dual kinase inhibitors of CK2 and GSK3β” (Medchemcomm, 2018).

Test [1] addresses T1, Casein kinase II subunit alpha (Homo sapiens, UniProt P68400). Description: Inhibition of recombinant full length human His-tagged CK2alpha1 expressed in baculovirus expression system at 11 uM using ser/thr-11 peptide as substrate measured after 1 hr by Z'-Lyte assay relative to control.
Target sequence in this assay (P68400 whole entry, looked up): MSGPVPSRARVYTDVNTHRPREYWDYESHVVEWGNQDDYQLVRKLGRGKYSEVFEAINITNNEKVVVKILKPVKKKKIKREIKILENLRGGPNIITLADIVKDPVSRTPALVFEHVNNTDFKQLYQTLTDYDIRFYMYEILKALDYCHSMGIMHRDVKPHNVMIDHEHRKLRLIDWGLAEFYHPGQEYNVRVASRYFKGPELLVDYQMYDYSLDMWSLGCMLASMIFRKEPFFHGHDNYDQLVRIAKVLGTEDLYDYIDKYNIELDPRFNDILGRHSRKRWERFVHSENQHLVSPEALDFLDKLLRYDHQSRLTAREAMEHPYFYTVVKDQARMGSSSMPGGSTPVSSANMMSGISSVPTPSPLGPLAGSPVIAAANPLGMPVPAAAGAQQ
Test [2] has as its target T2, Glycogen synthase kinase-3 beta (Homo sapiens, UniProt P49841). Description: Inhibition of recombinant full length human His-tagged GSK3beta expressed in baculovirus expression system at 11 uM using ser/thr-9 peptide as substrate measured after 1 hr by Z'-Lyte assay relative to control.
Target sequence in this assay (P49841 whole entry, looked up): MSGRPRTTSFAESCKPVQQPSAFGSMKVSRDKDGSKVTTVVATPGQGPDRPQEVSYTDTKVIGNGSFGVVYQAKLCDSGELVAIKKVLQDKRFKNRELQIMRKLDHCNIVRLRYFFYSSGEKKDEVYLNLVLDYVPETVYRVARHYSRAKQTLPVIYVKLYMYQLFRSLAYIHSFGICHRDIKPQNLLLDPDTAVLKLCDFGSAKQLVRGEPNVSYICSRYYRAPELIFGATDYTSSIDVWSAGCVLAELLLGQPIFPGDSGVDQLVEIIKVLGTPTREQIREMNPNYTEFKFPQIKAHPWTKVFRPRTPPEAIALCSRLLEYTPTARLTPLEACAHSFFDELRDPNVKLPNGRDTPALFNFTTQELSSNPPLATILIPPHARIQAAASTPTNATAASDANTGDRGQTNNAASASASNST
Test [3] addresses T1, Casein kinase II subunit alpha. Description: Inhibition of recombinant full length human His-tagged CK2alpha1 expressed in baculovirus expression system using ser/thr-11 peptide as substrate measured after 1 hr by Z'-Lyte assay.
Target sequence in this assay (P68400 whole entry): as the sequence (P68400 whole entry, looked up) above
Test [4] concerns the target T2, Glycogen synthase kinase-3 beta. Briefly: Inhibition of recombinant full length human His-tagged GSK3beta expressed in baculovirus expression system using ser/thr-9 peptide as substrate measured after 1 hr by Z'-Lyte assay.
Target sequence in this assay (P49841 whole entry): as the sequence (P49841 whole entry, looked up) above

Where only a bound is given, the exact number is not on record here.

Usually inhibition stands for the relative decrease from the control value, in per cent. By IC50 is commonly meant the midpoint of a concentration-inhibition curve.

With `CCCN(C(=O)Nc1ccc(OC)cc1)C1CCc2nc(NCc3ccc(C(=O)O)cc3)sc2C1` (stereo not drawn), the inhibition in test [1] and in test [2] was below 30% in each case.

On to `CCCN(C(=O)Nc1ccccc1F)C1CCc2nc(NCc3ccc(C(=O)O)cc3)sc2C1` (stereo not drawn), for which the inhibition in test [1] and in test [2] was below 30% in each case.

Regarding `CCCN(C(=O)Nc1ccc(OC)cc1)C1CCc2nc(NC(=O)Nc3ccc(OC)cc3)sc2C1` (stereo not drawn), the inhibition in test [1] and in test [2] was below 30% throughout.

With `CCCN(C(=O)Nc1ccc(F)cc1)C1CCc2nc(NCc3ccc(C(=O)OC)cc3)sc2C1` (stereo not drawn), the inhibition in test [1] and in test [2] was below 30% in each case.

For `CCCN(C(=O)Nc1cccc(C(=O)OCC)c1)C1CCc2nc(NC(=O)Nc3cccc(C(=O)OCC)c3)sc2C1` (stereo not drawn), the inhibition in test [1] and in test [2] was below 30% in each case.

Regarding `CCCN(C(=O)Nc1ccc(C(=O)OCC)cc1)C1CCc2nc(NCc3ccc(C(=O)OC)cc3)sc2C1` (stereo not drawn), the inhibition in test [1] and in test [2] was below 30% each time.

With `O=C(Nc1ccc(F)cc1)Nc1nc2c(s1)CC(NC(=O)Nc1ccc(F)cc1)CC2` (stereo not drawn), the inhibition in test [1] and in test [2] was below 30% in each case.

Consider `O=C(Nc1cccc(F)c1)Nc1nc2c(s1)CC(N1C(=O)c3ccccc3C1=O)CC2` (stereo not drawn), for which the inhibition in test [1] and in test [2] was below 30% throughout.

With `O=C(Nc1ccc(C(=O)O)cc1)Nc1nc2c(s1)CC(NC(=O)Nc1ccc(C(=O)O)cc1)CC2` (stereo not drawn), the inhibition in test [1] and in test [2] was below 30% each time.

With `CCCN(C(=O)Nc1cccc(F)c1)C1CCc2nc(NC(=O)Nc3cccc(F)c3)sc2C1` (stereo not drawn), the inhibition in test [1] and in test [2] was below 30% in each case.

For `COc1ccc(NC(=O)Nc2nc3c(s2)CC(N2C(=O)c4ccccc4C2=O)CC3)cc1` (stereo not drawn), the inhibition in test [1] and in test [2] was below 30% in each case.

Regarding `CCCN(C(=O)Nc1cccc(C(=O)OCC)c1)C1CCc2nc(NCc3ccc(C(=O)OC)cc3)sc2C1` (stereo not drawn), the inhibition in test [1] and in test [2] was above 30% each time. Also, the IC50 in test [3] was found to be 4.6 µM; in test [4], 13.6 µM.

For `CCCN(C(=O)Nc1ccc(F)cc1)C1CCc2nc(NCc3ccc(C(=O)O)cc3)sc2C1` (stereo not drawn), the inhibition in test [1] and in test [2] was below 30% throughout.

For the compound `CCCN(C(=O)Nc1cccc(C(=O)O)c1)C1CCc2nc(NCc3ccc(C(=O)O)cc3)sc2C1` (stereo not drawn), the inhibition in test [1] and in test [2] was above 30% each time. Besides, the values for the IC50 in test [3] and in test [4] were 4 µM and 11.4 µM, respectively.

For `O=C(Nc1cccc(F)c1)Nc1nc2c(s1)CC(NC(=O)Nc1cccc(F)c1)CC2` (stereo not drawn), the inhibition in test [1] and in test [2] was below 30% throughout.

Regarding `CCCN(C(=O)Nc1ccc(F)cc1)C1CCc2nc(NC(=O)Nc3ccc(F)cc3)sc2C1` (stereo not drawn), the inhibition in test [1] and in test [2] was below 30% throughout.

`CCCN(C(=O)Nc1cccc(C(=O)O)c1)C1CCc2nc(NC(=O)Nc3cccc(C(=O)O)c3)sc2C1` (stereo not drawn): the inhibition in test [1] and in test [2] was above 30% in each case. Also, the IC50 in test [3] worked out at 2.8 µM; in test [4], 1.5 µM.

As to `CCOC(=O)c1cccc(NC(=O)Nc2nc3c(s2)CC(N2C(=O)c4ccccc4C2=O)CC3)c1` (stereo not drawn), the inhibition in test [1] and in test [2] was above 30% each time. Besides, the IC50 is 7.9 µM in test [3] and 5.3 µM in test [4].

For `O=C(Nc1nc2c(s1)CC(NC(=O)Nc1ccccc1F)CC2)Nc1ccccc1F` (stereo not drawn), the inhibition in test [1] and in test [2] was below 30% each time.

As for `CCCN(C(=O)Nc1ccc(C(=O)OCC)cc1)C1CCc2nc(NC(=O)Nc3ccc(C(=O)OCC)cc3)sc2C1` (stereo not drawn), the inhibition in test [1] and in test [2] was below 30% each time.

In the case of `CCCN(C(=O)Nc1ccc(OC)cc1)C1CCc2nc(NCc3ccc(C(=O)OC)cc3)sc2C1` (stereo not drawn), the inhibition in test [1] and in test [2] was below 30% in each case.

Consider `O=C(Nc1cccc(C(=O)O)c1)Nc1nc2c(s1)CC(NC(=O)Nc1cccc(C(=O)O)c1)CC2` (stereo not drawn), for which the inhibition in test [1] and in test [2] was above 30% each time. Further, the IC50 in test [3] amounted to 12.4 µM; in test [4], 6 µM.

Consider `O=C(Nc1cccc(C(=O)O)c1)Nc1nc2c(s1)CC(N1C(=O)c3ccccc3C1=O)CC2` (stereo not drawn), for which the inhibition in test [1] and in test [2] was above 30% throughout. The IC50 in test [3] came out at 1.9 µM; in test [4], 0.67 µM.

With `CCCN(C(=O)Nc1ccc(C(=O)O)cc1)C1CCc2nc(NCc3ccc(C(=O)O)cc3)sc2C1` (stereo not drawn), the inhibition in test [1] and in test [2] was below 30% throughout.

As for `O=C(Nc1ccc(F)cc1)Nc1nc2c(s1)CC(N1C(=O)c3ccccc3C1=O)CC2` (stereo not drawn), the inhibition in test [1] and in test [2] was below 30% throughout.

For `CCOC(=O)c1cccc(NC(=O)Nc2nc3c(s2)CC(NC(=O)Nc2cccc(C(=O)OCC)c2)CC3)c1` (stereo not drawn), the inhibition in test [1] and in test [2] was above 30% each time. Further, the concentration for half-maximal inhibition (IC50) came to 20.4 µM in test [3] and 2.5 µM in test [4].

As for `O=C(Nc1nc2c(s1)CC(N1C(=O)c3ccccc3C1=O)CC2)Nc1ccccc1F` (stereo not drawn), the inhibition in test [1] and in test [2] was below 30% throughout.

As for `CCOC(=O)c1ccc(NC(=O)Nc2nc3c(s2)CC(NC(=O)Nc2ccc(C(=O)OCC)cc2)CC3)cc1` (stereo not drawn), the inhibition in test [1] and in test [2] was below 30% throughout.

As to `CCCN(C(=O)Nc1ccccc1F)C1CCc2nc(NC(=O)Nc3ccccc3F)sc2C1` (stereo not drawn), the inhibition in test [1] and in test [2] was below 30% each time.

`COc1ccc(NC(=O)Nc2nc3c(s2)CC(NC(=O)Nc2ccc(OC)cc2)CC3)cc1` (stereo not drawn): the inhibition in test [1] and in test [2] was below 30% each time.

Consider `CCCN(C(=O)Nc1ccc(C(=O)O)cc1)C1CCc2nc(NC(=O)Nc3ccc(C(=O)O)cc3)sc2C1` (stereo not drawn), for which the inhibition in test [1] and in test [2] was below 30% throughout.

For `CCCN(C(=O)Nc1ccccc1F)C1CCc2nc(NCc3ccc(C(=O)OC)cc3)sc2C1` (stereo not drawn), the inhibition in test [1] and in test [2] was below 30% throughout.

As for `O=C(Nc1ccc(C(=O)O)cc1)Nc1nc2c(s1)CC(N1C(=O)c3ccccc3C1=O)CC2` (stereo not drawn), the inhibition in test [1] and in test [2] was above 30% in each case. Also, the IC50 in test [3] was found to be 4.9 µM; in test [4], 4.6 µM.

`CCCN(C(=O)Nc1cccc(F)c1)C1CCc2nc(NCc3ccc(C(=O)OC)cc3)sc2C1` (stereo not drawn): the inhibition in test [1] and in test [2] was below 30% throughout.

With `CCOC(=O)c1ccc(NC(=O)Nc2nc3c(s2)CC(N2C(=O)c4ccccc4C2=O)CC3)cc1` (stereo not drawn), the inhibition in test [1] and in test [2] was below 30% in each case.

`CCCN(C(=O)Nc1cccc(F)c1)C1CCc2nc(NCc3ccc(C(=O)O)cc3)sc2C1` (stereo not drawn): the inhibition in test [1] and in test [2] was below 30% each time.
